This experiment can be described thus: Hair straightening efficacy on hair switches, expert grading. To be noted: after 5 wash cycles; for Straightening efficacy Mean grade: 20% active agent in crosslinking composition with 100 ppm 4,5-dibromofluorescein, 100 ppm Eosin Y, water buffered at pH 10, irons at 121° C. with UV light at 380 nm, 8 passes, score on 0-10 scale (0 curly, 10 very straight). The method, then:
The hair straightening efficacy is tested for the crosslinking compositions described herein. Switches of low lift naturally curly hair are employed. These are shampooed with a Pantene clarifying shampoo to ensure the hair is in a clean state with no residues that could affect the end result. The switches are then rinsed. Excess water is removed from the hair by wringing out the switches. The switches are treated with a crosslinking composition which is pre-prepared in a dark room. The crosslinking composition comprises: active agent as listed in TABLE 2; 100 ppm 4,5-dibromofluorescein; 100 ppm Eosin Y; QSP water buffered at pH 10. These ingredients are mixed on a spinner plate for 30 mins. The crosslinking composition is stored in an amber bottle or a bottle covered in electrical tape to ensure no light access to the crosslinking composition. 0.5 g of crosslinking composition per 1 g hair is employed. The crosslinking composition is left on the hair for 30 minutes. After this time, the hair is blow dried, brushed, and is then mechanically straightened with hybrid light and heat emitting straightening irons (at 250° F. [121° C.] and emitting UV light at 380 nm) with 8 passes.
The switches are then imaged. To simulate durability, the switches are then given one wash-and-dry cycle. One wash-and-dry cycle involves shampooing with a Hairtrition shampoo (Hairtrition Color Protect sulfate-free shampoo from Zotos), rinsing and then drying in a hot box. Once dry the switches are imaged again. The switches are then given 4 further wash-and-dry cycles. Once dry the switches are imaged again. An expert grader gives the images of the switches a score on a 0-10 scale. The scale is a standard scale set as curly hair having 4-5 nodes of curls is a score of 0 and very straight hair is a 10. Thus, the switches are compared to a normal state of hair.
Using an expert grader is reliable because the grader is trained on measuring/scaling the configuration of the hair from straight to curly in a consistent way. Numeric data obtained by this method is averaged, and statistical analysis is conducted using JMP statistical software available from SAS Institute at the 87% confidence level.

As for `O=C1OCCN1CCO` [N-(hydroxyethyl)-2-oxazolidinone], the “Straightening efficacy Mean grade” value worked out at 4.3. The “Straightening efficacy compared with the control (in words)” value (statistical analysis at the 87% confidence level) was “significantly better straightening efficacy than the control”.

As for `CC(=O)N1CCOC1=O` [N-acetyl-2-oxazolidinone], the “Straightening efficacy Mean grade” value was found to be 3.0.

On to `O=C1NCCO1` [2-oxazolidinone], for which the “Straightening efficacy Mean grade” value worked out at 3.7.

(Values after patent US10543156B2, “Shaping keratin fibres using 2-oxazolidinone compounds” (The Procter & Gamble Company, priority 2015, dated 2020).)
